# Values of other authors, collected in patent US20250195680A1, “CANCER TREATMENT WITH ANTI-CLAUDIN 18.2 ADC” (priority 2023, published 2025).
# Test system: gastric cancer
# Details: combined with CAPOX or mFOLFOX6 vs chemotherapy alone
substance,measurement,value
zolbetuximab: anti-CLDN18.2 monoclonal antibody,efficacy in treating gastric cancer,effective in treating gastric cancer
